Measurements as given in PubChem BioAssay (NCI).
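Interpolation was linear, between the two tested concentrations surrounding the appropriate level; five concentrations were tested over 48 hours in 96-well plates. The concentration for 50% growth inhibition is given as GI50. At the TGI there is no net growth.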

Key:
Assay in all cases: NCI-60 cell line screen, 48 h
SR leukemia = tested on: SR leukemia
OVCAR-5 ovarian = tested on: OVCAR-5 ovarian
KM12 colon = tested on: KM12 colon
OVCAR-3 ovarian = tested on: OVCAR-3 ovarian
SF-268 CNS = tested on: SF-268 CNS
OVCAR-4 ovarian = tested on: OVCAR-4 ovarian
MALME-3M melanoma = tested on: MALME-3M melanoma
NCI-H460 lung = tested on: NCI-H460 lung
IGROV1 ovarian = tested on: IGROV1 ovarian
HT29 colon = tested on: HT29 colon

CCCCC#COP(=O)(OCC)OCC
TGI (SR leukemia): > 100 µM | TGI (OVCAR-5 ovarian): > 100 µM | TGI (KM12 colon): > 100 µM | TGI (OVCAR-3 ovarian): > 100 µM | TGI (SF-268 CNS): > 100 µM | TGI (OVCAR-4 ovarian): > 100 µM | TGI (MALME-3M melanoma): > 100 µM | TGI (NCI-H460 lung): > 100 µM | TGI (IGROV1 ovarian): > 100 µM | TGI (HT29 colon): > 100 µM

Cc1nn(C(=O)c2ccccc2O)c2c1C(c1ccccc1)SC(N)=N2 (stereo not given)
TGI (SR leukemia): 6.49 µM | TGI (OVCAR-5 ovarian): > 10 µM | TGI (KM12 colon): > 10 µM | TGI (OVCAR-3 ovarian): 7.22 µM | TGI (SF-268 CNS): > 10 µM | TGI (OVCAR-4 ovarian): > 10 µM | TGI (MALME-3M melanoma): > 10 µM | TGI (NCI-H460 lung): > 10 µM | TGI (IGROV1 ovarian): 6.96 µM | TGI (HT29 colon): > 10 µM

C=CCCCCCCCCCCCC1CCC(CC)N1 (stereo not given)
TGI (SR leukemia): 7.12 µM | TGI (OVCAR-5 ovarian): 22.6 µM | TGI (KM12 colon): 13.1 µM | TGI (OVCAR-3 ovarian): 23 µM | TGI (SF-268 CNS): 46.6 µM | TGI (OVCAR-4 ovarian): 21.3 µM | TGI (MALME-3M melanoma): 31.4 µM | TGI (NCI-H460 lung): 40.7 µM | TGI (IGROV1 ovarian): 25.9 µM | TGI (HT29 colon): 14 µM

COc1ccc(NC(=O)C2C(=O)N(c3ccc(OC)cc3)C(=O)/C2=N/O)cc1 (stereo not given)
TGI (SR leukemia): > 100 µM | TGI (OVCAR-5 ovarian): > 100 µM | TGI (KM12 colon): 56.7 µM | TGI (OVCAR-3 ovarian): > 59.9 µM | TGI (SF-268 CNS): 52.7 µM | TGI (OVCAR-4 ovarian): 31.6 µM | TGI (MALME-3M melanoma): 42.9 µM | TGI (NCI-H460 lung): 46.4 µM | TGI (IGROV1 ovarian): > 80.7 µM | TGI (HT29 colon): > 100 µM

COc1cc2nc(-c3ccc(C(F)(F)F)cc3)cc(OCCCN3CCOCC3)c2cc1OC
GI50 (SR leukemia): 0.242 µM | TGI (SR leukemia): 14.3 µM | GI50 (OVCAR-5 ovarian): 1.92 µM | TGI (OVCAR-5 ovarian): 18.8 µM | GI50 (KM12 colon): 3.42 µM | TGI (KM12 colon): 22 µM | GI50 (OVCAR-3 ovarian): 3.72 µM | TGI (OVCAR-3 ovarian): 18.4 µM | GI50 (SF-268 CNS): 5.7 µM | TGI (SF-268 CNS): 27.9 µM | GI50 (OVCAR-4 ovarian): 10.3 µM | TGI (OVCAR-4 ovarian): 23.2 µM | GI50 (MALME-3M melanoma): 1.38 µM | TGI (MALME-3M melanoma): 3.77 µM | GI50 (NCI-H460 lung): 0.639 µM | TGI (NCI-H460 lung): 13.6 µM | GI50 (IGROV1 ovarian): 0.83 µM | TGI (IGROV1 ovarian): 21.9 µM | GI50 (HT29 colon): 0.54 µM | TGI (HT29 colon): 15.7 µM

CC(=O)O/N=C/c1ncccc1CO
TGI (SR leukemia): > 100 µM | TGI (OVCAR-5 ovarian): > 100 µM | TGI (KM12 colon): > 100 µM | TGI (OVCAR-3 ovarian): > 100 µM | TGI (SF-268 CNS): > 100 µM | TGI (OVCAR-4 ovarian): > 100 µM | TGI (MALME-3M melanoma): > 100 µM | TGI (NCI-H460 lung): > 100 µM | TGI (IGROV1 ovarian): > 100 µM | TGI (HT29 colon): > 100 µM

CCC(=O)c1cn(C)c(=O)c2ccccc12
TGI (SR leukemia): > 100 µM | TGI (OVCAR-5 ovarian): > 100 µM | TGI (KM12 colon): > 100 µM | TGI (OVCAR-3 ovarian): > 100 µM | TGI (SF-268 CNS): > 100 µM | TGI (OVCAR-4 ovarian): > 100 µM | TGI (MALME-3M melanoma): > 100 µM | TGI (NCI-H460 lung): > 100 µM | TGI (IGROV1 ovarian): > 100 µM | TGI (HT29 colon): > 100 µM

CC1=CSC2=NC(c3ccc(Cl)c(Cl)c3)=CC(c3ccc(Cl)cc3)N12 (stereo not given)
GI50 (SR leukemia): > 61.3 µM | TGI (SR leukemia): > 100 µM | GI50 (OVCAR-5 ovarian): > 100 µM | TGI (OVCAR-5 ovarian): > 100 µM | GI50 (KM12 colon): > 100 µM | TGI (KM12 colon): > 100 µM | GI50 (OVCAR-3 ovarian): > 100 µM | TGI (OVCAR-3 ovarian): > 100 µM | GI50 (SF-268 CNS): > 100 µM | TGI (SF-268 CNS): > 100 µM | GI50 (OVCAR-4 ovarian): > 100 µM | TGI (OVCAR-4 ovarian): > 100 µM | GI50 (MALME-3M melanoma): > 100 µM | TGI (MALME-3M melanoma): > 100 µM | GI50 (NCI-H460 lung): > 100 µM | TGI (NCI-H460 lung): > 100 µM | GI50 (IGROV1 ovarian): > 100 µM | TGI (IGROV1 ovarian): > 100 µM | GI50 (HT29 colon): > 100 µM | TGI (HT29 colon): > 100 µM

C=CCc1cc2cccc(OC)c2oc1=O
TGI (SR leukemia): > 100 µM | TGI (OVCAR-5 ovarian): > 100 µM | TGI (KM12 colon): > 100 µM | TGI (OVCAR-3 ovarian): > 100 µM | TGI (SF-268 CNS): > 100 µM | TGI (OVCAR-4 ovarian): > 100 µM | TGI (MALME-3M melanoma): > 100 µM | TGI (NCI-H460 lung): > 100 µM | TGI (IGROV1 ovarian): > 100 µM | TGI (HT29 colon): > 100 µM
